Results published in article PMC12548419 (Journal of Virology, 2025).
Several values for one entry are separate records, joined by “and”; a condition that tells them apart may be missing. Equal values may be shown once. Read-outs that look alike come from different tables or passages of the source.

Key:
SFTSV [1] = assay type: cell-based, severe fever with thrombocytopenia syndrome virus
SFTSV [2] = tested on: SFTSV; set-up: species or system A129 mice; conditions: mouse, in vivo
LCMV [3] = assay: microbe, parasite or virus in culture; assay type: cell-based, lymphocytic choriomeningitis virus (strain Armstrong); conditions: for EC50: Mammarenavirus choriomeningitidis
LCMV [4] = assay type: cell-based, lymphocytic choriomeningitis virus
LCMV [5] = tested on: LCMV; set-up: species or system C57BL/6-Prf1^tm1Sdz/J mice; conditions: mouse, in vivo
SFTSV [6] = assay: microbe, parasite or virus in culture; assay type: cell-based; conditions: for EC50: Severe fever with thrombocytopenia syndrome virus
[7] = cynomolgus monkey, in vivo, po, 10.7 mg/kg
[8] = Sprague-Dawley, rat, in vivo, po, 21 mg/kg
in vivo [9] = conditions: Sprague-Dawley, rat, po, 10 mg/kg
in vivo [10] = conditions: cynomolgus monkey, po, 5 mg/kg
[11] = A549, 48 h, read-out: EC50 (μM) mean ± sd LCMV A549
[12] = BHK-21, 48 h, read-out: EC50 (μM) mean ± sd LCMV BHK-21
[13] = Vero, 48 h, read-out: EC50 (μM) mean ± sd LCMV Vero
[14] = read-out: EC50 range for LCMV over all cell lines evaluated
[15] = A549, 48 h, read-out: EC50 (μM) mean ± sd SFTSV A549
[16] = Huh-7, 48 h, read-out: EC50 (μM) mean ± sd SFTSV Huh-7
[17] = Vero, 48 h, read-out: EC50 (μM) mean ± sd SFTSV Vero
[18] = read-out: EC50 range for SFTSV over all cell lines evaluated

CC(=O)OC[C@@]1(F)O[C@@H](n2ccc(=O)n(COC(=O)c3cccnc3)c2=O)[C@H](OC(C)=O)[C@@H]1OC(C)=O [VV251]
antiviral effect on addition of exogenous natural nucleosides (SFTSV [1]): competitively reversed by supplementation with exogenous uridine and cytidine
leukopenia, lymphocytopenia and reduction in platelet count (hematological parameters) (SFTSV [2]): relieved
lung pathology scores (SFTSV [2]): significantly lower pathology scores
plasma levels of IFN-γ, TNF-α, IL-1β and IL-6 (SFTSV [2]): significantly reduced
spleen histopathology scores (SFTSV [2]): substantially reduced
splenomegaly (spleen-to-body weight ratio) (SFTSV [2]): significantly ameliorated
virus load in the liver, spleen, lung, and kidney (qRT-PCR and immunoplaque assays) (SFTSV [2]): significant reductions
body weight (SFTSV [2]; po, 1 mg/kg): significant reduction in body weight
survival (SFTSV [2]; po, 1 mg/kg): only one mouse surviving until the end of the study
mice that died (SFTSV [2]; po, 5 mg/kg): one
body weight (SFTSV [2]; po, 10 mg/kg): remained stable
SI values LCMV A549 (LCMV [3]): > 6559.96
SI values LCMV BHK-21 (LCMV [3]): > 3177.56
SI values LCMV Vero (LCMV [3]): > 3628.85
fold lower EC50 than T-705 against LCMV (LCMV [3]): 849.6 fold and 632.9 fold
EC50 (LCMV [3]; [11]): 0.08 µM
EC50 (LCMV [3]; [12]): 0.16 ± 0.05 µM
EC50 (LCMV [3]; [13]): 0.14 µM
EC50 (LCMV [3]; [14]): 0.08 to 0.16 µM
antiviral effect on addition of exogenous natural nucleosides (LCMV [4]): competitively reversed by supplementation with exogenous uridine and cytidine
body weight (LCMV [5]): remained stable
hematological parameters (white blood cell, platelet, lymphocyte count) (LCMV [5]): ameliorated viremia induced by LCMV infection
number of viral RNA copies relative to the vehicle group (LCMV [5]): more than one order of magnitude lower
plasma IFN-γ and granulocyte colony-stimulating factor (LCMV [5]): statistically significant reduction
spleen damage (spleen size, pathology score, H&E staining) (LCMV [5]): ameliorated spleen damage efficiently
viral RNA copies in the liver, spleen, lung, and kidney (qRT-PCR) (LCMV [5]): significantly decreased
viral titer in the liver, spleen, lung, and kidney (immunoplaque assay) (LCMV [5]): significantly decreased
SI values SFTSV A549 (SFTSV [6]): > 96.94
SI values SFTSV Vero (SFTSV [6]): > 168.75
EC50 (SFTSV [6]; [15]): 5.16 µM
EC50 (SFTSV [6]; [16]): 0.65 µM
EC50 (SFTSV [6]; [17]): 2.96 µM
EC50 (SFTSV [6]; [18]): 0.65 to 5.16 µM
AUC0-t [7]: 14,922 ng·h/mL
Cmax [7]: 2,358 ng/mL
T1/2 [7]: 5.45 ± 0.82 h
CC50 (in vitro): > 500 µM
AUC0-t [8]: 9,714 ng·h/mL
Cmax [8]: 1,598 ng/mL
T1/2 [8]: 6.34 ± 0.75 h

NC(=O)c1nc(F)c[nH]c1=O [T-705, favipiravir]
leukopenia, lymphocytopenia and reduction in platelet count (hematological parameters) (SFTSV [2]): relieved
lung pathology scores (SFTSV [2]): significantly lower pathology scores
spleen histopathology scores (SFTSV [2]): substantially reduced
splenomegaly (spleen-to-body weight ratio) (SFTSV [2]): significantly ameliorated
virus load in the liver, spleen, lung, and kidney (qRT-PCR and immunoplaque assays) (SFTSV [2]): significant reductions
infectious viral titers in the spleen (immunoplaque assays) (SFTSV [2]; 300 mg/kg): marked decreases
plasma levels of IFN-γ, TNF-α, IL-1β and IL-6 (SFTSV [2]; 300 mg/kg): significantly reduced
viral RNA copies in the spleen (qRT-PCR) (SFTSV [2]; 300 mg/kg): no statistically significant reduction
body weight (SFTSV [2]; po, 300 mg/kg): slight initial weight loss followed by weight recovery at 5 days post-infection
survival (SFTSV [2]; po, 300 mg/kg): survived
SI values LCMV A549 (LCMV [3]): > 7.36
SI values LCMV Vero (LCMV [3]): > 5.64
EC50 (LCMV [3]; [11]): 68 µM
EC50 (LCMV [3]; [13]): 88.6 µM
body weight (LCMV [5]): parallel body weight with that of the vehicle-treated group
spleen damage (spleen size, pathology score, H&E staining) (LCMV [5]): marked pathological lesions
viral RNA copies in the liver, spleen, lung, and kidney (qRT-PCR) (LCMV [5]): no reduction in the number of viral RNA copies was observed except in the lungs
viral titer in the liver, spleen, lung, and kidney (immunoplaque assay) (LCMV [5]): reduced the viral titer in the tissues
plasma IFN-γ and granulocyte colony-stimulating factor (LCMV [5]; 300 mg/kg): no significant effect
survival (LCMV [5]; po, 300 mg/kg): no survivors remaining by the end of the study
SI values SFTSV A549 (SFTSV [6]): > 1.79
SI values SFTSV Huh-7 (SFTSV [6]): > 160.32
SI values SFTSV Vero (SFTSV [6]): > 24.23
EC50 (SFTSV [6]; [15]): 280 µM
EC50 (SFTSV [6]; [16]): 3.12 µM
EC50 (SFTSV [6]; [17]): 20.6 µM
CC50 (in vitro): > 500 µM

O=c1ccn([C@@H]2O[C@](F)(CO)[C@@H](O)[C@H]2O)c(=O)[nH]1 [4′-FlU, 4′-Fluorouridine]
AUC0-t (in vivo [9]): 7280 ng·h/mL
Cmax (in vivo [9]): 1370 ng/mL
half-life (in vivo [9]): 3.39 ± 1.41 h
SI values LCMV A549 (LCMV [3]): > 4826.57
SI values LCMV BHK-21 (LCMV [3]): > 3389.68
SI values LCMV Vero (LCMV [3]): > 12697.20
EC50 (LCMV [3]; [11]): 0.1 ± 0.01 µM
EC50 (LCMV [3]; [12]): 0.15 ± 0.05 µM
EC50 (LCMV [3]; [13]): 0.04 ± 0.01 µM
EC50 (LCMV [3]; [14]): 0.04 to 0.15 µM
SI values SFTSV A549 (SFTSV [6]): > 210.67
SI values SFTSV Huh-7 (SFTSV [6]): > 214.23
SI values SFTSV Vero (SFTSV [6]): > 245.98
EC50 (SFTSV [6]; [15]): 2.37 ± 0.16 µM
EC50 (SFTSV [6]; [16]): 2.33 ± 0.51 µM
EC50 (SFTSV [6]; [17]): 2.03 ± 0.82 µM
EC50 (SFTSV [6]; [18]): 2.03 to 2.37 µM
AUC0-t (in vivo [10]): 10700 ng·h/mL
Cmax (in vivo [10]): 1500 ng/mL
half-life (in vivo [10]): 6.82 ± 0.46 h
CC50 (in vitro): > 500 µM
